pIC50, pKi: −log10 of the molar value. Square brackets hold non-standard residues; d marks the D form. Peptide text beside a SMILES is read from it. Mpa = O=C(O)CCS
Columns and labels:
CDK2/Cyclin A2 = CDK2/Cyclin A2 (Homo sapiens, UniProt P20248+P24941); assay: Inhibition of CDK2/cyclin A2 (unknown origin) using histone as substrate in presence of ATP by luminescent ADP detection assay
[1] = molecular target: Cyclin-dependent kinase 2/cyclin E1 (Homo sapiens, UniProt P24864+P24941); assay: Inhibition of CDK2/cyclin E1 (unknown origin) incubated for 60 mins in presence of ATP by ADP-Glo luminescent Kinase Assay
CDK9/cyclin T1 = CDK9/cyclin T1 (Homo sapiens, UniProt O60563+P50750); assay: Inhibition of CDK9/cyclin T1 (unknown origin) assessed as inhibition constant
CDK9/cyclin T1, sequence (O60563 whole entry, looked up): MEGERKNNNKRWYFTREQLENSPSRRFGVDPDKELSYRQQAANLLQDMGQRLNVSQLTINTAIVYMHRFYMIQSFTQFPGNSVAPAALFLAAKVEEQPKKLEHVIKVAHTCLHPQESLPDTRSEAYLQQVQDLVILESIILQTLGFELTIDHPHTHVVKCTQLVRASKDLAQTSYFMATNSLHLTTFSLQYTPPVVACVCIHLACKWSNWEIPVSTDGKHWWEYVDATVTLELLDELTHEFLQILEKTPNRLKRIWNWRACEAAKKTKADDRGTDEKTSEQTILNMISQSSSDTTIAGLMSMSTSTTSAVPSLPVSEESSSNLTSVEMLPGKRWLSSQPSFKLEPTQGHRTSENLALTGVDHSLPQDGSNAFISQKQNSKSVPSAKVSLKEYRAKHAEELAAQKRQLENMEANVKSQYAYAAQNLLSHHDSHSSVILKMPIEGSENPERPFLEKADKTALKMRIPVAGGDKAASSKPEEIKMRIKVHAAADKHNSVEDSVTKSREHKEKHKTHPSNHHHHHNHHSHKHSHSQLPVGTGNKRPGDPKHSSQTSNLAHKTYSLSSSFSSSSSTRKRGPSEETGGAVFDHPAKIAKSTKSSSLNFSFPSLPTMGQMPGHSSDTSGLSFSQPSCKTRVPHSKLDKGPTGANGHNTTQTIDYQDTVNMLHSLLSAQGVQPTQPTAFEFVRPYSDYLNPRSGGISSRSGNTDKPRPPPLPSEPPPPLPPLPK
CDK9/cyclin T1, sequence (P50750 whole entry, looked up): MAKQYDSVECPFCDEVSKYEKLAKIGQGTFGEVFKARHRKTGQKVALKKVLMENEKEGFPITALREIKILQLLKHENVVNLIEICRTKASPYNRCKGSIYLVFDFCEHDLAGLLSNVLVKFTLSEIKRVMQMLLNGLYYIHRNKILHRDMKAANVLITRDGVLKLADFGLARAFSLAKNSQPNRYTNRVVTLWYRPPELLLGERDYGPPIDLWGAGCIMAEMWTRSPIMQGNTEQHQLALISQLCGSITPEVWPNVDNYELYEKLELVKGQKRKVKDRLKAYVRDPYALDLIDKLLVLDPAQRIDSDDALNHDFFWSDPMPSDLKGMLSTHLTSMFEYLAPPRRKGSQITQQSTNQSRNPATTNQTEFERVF

| pIC50 (CDK2/Cyclin A2) | pKi (CDK9/cyclin T1) | Structure (SMILES) | other results |
| --- | --- | --- | --- |
| > 7.70 |  | CCCCC/N=C(/N)N/N=C/c1c[nH]c2ccc(OCC=C(C)C)cc12 |  |
| > 7.70 |  | CCOc1ccc(C[C@@H](NC(=O)CC23CC4CC(CC(C4)C2)C3)C(=O)N[C@@H](Cc2ccccc2)C(=O)N[C@H](C(=O)N[C@@H](CC(N)=O)C(=O)N[C@@H](CCCCN)C(=O)N2CCC[C@@H]2C(=O)N[C@@H](CCCN=C(N)N)C(=O)N[C@@H](CCCN=C(N)N)C(N)=O)C(C)C)cc1 |  |
|  |  | CC(C)C[C@H](NC(=O)[C@@H](NC(=O)c1ccccc1OCc1ccccc1)C(C)C)C(=O)N[C@@H](CO)C(=O)O | pIC50 [1]: 9.67 |
|  |  | CC(C)C[C@H](NC(=O)[C@@H](NC(=O)c1ccccc1O)C(C)C)C(=O)N[C@@H](CO)C(=O)O | pIC50 [1]: 9.67 |
|  | 8.48 | CC(C)C[C@H](NC(=O)[C@@H](NC(=O)c1ccc(OCc2ccccc2)cc1)C(C)C)C(=O)N[C@@H](CO)C(=O)O |  |
| > 7.70 |  | CC(C)[C@H](NC(=O)[C@H](Cc1ccccc1)NC(=O)[C@@H](Cc1ccc(O)cc1)NC(=O)CC12CC3CC(CC(C3)C1)C2)C(=O)N[C@@H](CC(N)=O)C(=O)N[C@@H](CCCN=C(N)N)C(=O)N1CCC[C@@H]1C(=O)N[C@@H](CCCN=C(N)N)C(=O)N[C@@H](CCCN=C(N)N)C(N)=O |  |
|  | 8.48 | CC(C)C[C@H](NC(=O)[C@@H](NC(=O)c1cccc(OCc2ccccc2)c1)C(C)C)C(=O)N[C@@H](CO)C(=O)O |  |
|  | 8.48 | CC(C)C[C@H](NC(=O)[C@@H](NC(=O)CCS)C(C)C)C(=O)N[C@@H](CO)C(=O)O ([Mpa]VLS-OH) |  |
| > 7.70 |  | CCCCC/N=C(/N)N/N=C/c1c[nH]c2ccc(OC(C)C)cc12 |  |

| Structure (SMILES) | pIC50 (CDK2/Cyclin A2) | pKi (CDK9/cyclin T1) | other results |
| --- | --- | --- | --- |
| CCCCCNC(=N)N/N=C/c1c[nH]c2ccc(O)cc12 | > 7.70 |  |  |

Source: BindingDB's records for PubMed 32707525 (n/a, 2020)
